Reference: patent US20250154146A1, “PROTEIN DEGRADERS DEVELOPED ON BASIS OF BCL-2 FAMILY PROTEIN LIGAND COMPOUNDS AND USE THEREOF” (ShanghaiTech University, priority 2022, published 2025)

Key:
Assay type in all cases: cell-based
RS4;11 cells = assay: Thiazolyl blue cell proliferation assay in RS4;11 cells; details: Homo sapiens, RS4;11 acute lymphoblastic leukemia cells, 48 hours, read-out: IC50 (nM) for inhibiting the proliferation of RS4;11 cells
Excerpt: (§1) The cell lines RS4;11 (human acute lymphocytic leukemia cells), Molt-4 cells (human acute lymphocytic leukemia cells), MV4;11 (human myeloid monocytic leukemia cells), and Light II cells were commercially available or purchased from ATCC (American Type Culture Collection) and routinely cultured according to instructions.
1) Study on the proliferation inhibition effects induced by the compounds of the present disclosure designed based on ABT199/263 against BCL-XL-dependent RS4;11 cells:
(§2) The specific steps were as follows: RS4;11 cells were seeded at a density of 3×10^4 cells/well in 90 μL of serum-containing RPMI-1640 culture medium. DT2216 and the compounds of the present disclosure were added to the cell suspension at corresponding concentration gradients. DT2216 and DMSO were used as positive and vehicle control, respectively. The positive control and negative control were treated with the same treatment method as the compounds of the present disclosure. After treating the cells with the compounds of the present disclosure for 48 hours, thiazole blue solution (5 mg/mL) was added at 10 μL/well to the cell suspension, followed by incubation for 3 hours at 37° C. in an incubator with 5% CO2. Then, triple solution (0.1 g/mL SDS, 5% isopropyl alcohol, 10 mM hydrochloric acid) was added, followed by incubation for 4-6 hours at 37° C. in an incubator with 5% CO2. After confirming that all the crystal violets were dissolved under inverted biological microscopy, the absorbance was measured at 490 nm using an Epoch microplate reader (Biotek Corporation). The growth inhibition of the compounds of the present disclosure on the cells was plotted by GraphPad Prism 8 software, and the IC50 values of the compounds of the present disclosure were calculated therefrom. The experiment had 3 replicates per group and was repeated at least three times.
We conducted dose-dependent experiments on the designed and synthesized compounds of the present disclosure in RS4;11 cells, which are highly sensitive to BCL-XL inhibitors. The cells were treated with 7 different concentrations (starting at the highest concentration of 1000 nM or 100 nM; 10-fold serial dilutions) of the compounds for 48 hours, and then tested using the thiazolyl blue cell proliferation assay.

[1] = tested on: Hedgehog (Hh) signaling pathway; assay: Dual-luciferase reporter assay of Hedgehog activity in Light II cells; details: SAG stimulation, 36 h, dual-luciferase assay reporter kit, read-out: IC50 (nM) in Light II cells (inhibiting Hedgehog activity)
Procedure: Determination of the IC50 Values of Compounds Inhibiting Hedgehog Activity—Dual-Luciferase Reporter Assay:
Light II cells were NIH3T3 cell lines that stably express the Gli-luciferase and TK-renilla reporters. They were cultured with DMEM medium containing 10% (v/v) fetal bovine serum (FBS), 0.4 mg/ml G418, 0.15 mg/ml bleomycin (Zeocin), and penicillin/streptomycin at 37° C. in an incubator with 5% CO2. Light II cells in the logarithmic growth phase were seeded at a density of 2.5×10^4 cells/well in a 96-well plate. After 24h incubation, the cells were subjected to treatment with SAG with or without different concentrations of the compounds of the present disclosure for 36 h. After that, the Hedgehog activity was measured using the dual fluorescence reporter kit according to its instructions. The experiment had 3 replicates per group and was repeated at least three times.

Molt-4 cells = assay: Thiazolyl blue cell proliferation assay in Molt-4 cells; details: Homo sapiens, Molt-4 acute lymphocytic leukemia cells, 72 hours, read-out: IC50 (nM) for inhibiting the proliferation of Molt-4 cells
Excerpt: as §1
3) Study on the proliferation inhibition effects induced by the compounds of the present disclosure designed based on ABT199/263 against BCL-XL-dependent Molt-4 cells:
as §2, with “follows: Molt-4” for “follows: RS4;11”, “of 2×10^4” for “of 3×10^4”, “in 180” for “in 90”, “serum-containing RPMI 1640” for “serum-containing RPMI-1640”, “for 72” for “for 48”, “at 20” for “at 10”

MV4;11 cells = assay: Thiazolyl blue cell proliferation assay in MV4;11 cells; details: Homo sapiens, MV4;11 myeloid monocytic leukemia cells, 48 hours, read-out: IC50 (nM) for inhibiting the proliferation of MV4;11 cells
Excerpt: as §1
2) Study on the proliferation inhibition effects induced by the compounds of the present disclosure designed based on ABT199/263 against BCL-XL-dependent MV4;11 cells:
as §2, with “MV4;11” for “RS4;11”, “2×10^4” for “3×10^4”, “IMDM” for “RPMI-1640”, “µL/well” for “μL/well”

IC50 (RS4;11 cells) [nM] | IC50 [1] [nM] | IC50 (Molt-4 cells) [nM] | IC50 (MV4;11 cells) [nM] | Structure (SMILES)
< 20 | < 10 | < 10 | < 20 | C[C@H]1CN([C@H]2CC[C@@H](CNc3ccc(S(=O)(=O)NC(=O)c4ccc(N5CCN(CC6=C(c7ccc(Cl)cc7)CC(C)(C)CC6)CC5)cc4Oc4cnc5[nH]ccc5c4)cc3[N+](=O)[O-])CC2)CCN1Cc1ccc2c(c1)CN(C1CCC(=O)NC1=O)C2=O (stereo partly drawn) [BCL-03165, 2-((1H-pyrrolo[2,3-b]pyridin-5-yl)oxy)-4-(4-((4′-chloro-5,5-dimethyl-3,4,5,6-tetrahydro-[1,1′-biphenyl]-2-yl)methyl)piperazin-1-yl)-N-((4-((((cis)-4-((3S)-4-((2-(2,6-dioxopiperidin-3-yl)-1-oxoisoindolin-5-yl)methyl)-3-methylpiperazin-1-yl)cyclohexyl)methyl)amino)-3-nitrophenyl)sulfonyl)benzamide]
< 20 | < 10 | < 10 | < 20 | C[C@H]1CN([C@H]2CC[C@H](CNc3ccc(S(=O)(=O)NC(=O)c4ccc(N5CCN(CC6=C(c7ccc(Cl)cc7)CC(C)(C)CC6)CC5)cc4Oc4cnc5[nH]ccc5c4)cc3[N+](=O)[O-])CC2)CCN1Cc1ccc2c(c1)CN(C1CCC(=O)NC1=O)C2=O (stereo partly drawn) [BCL-03166, 2-((1H-pyrrolo[2,3-b]pyridin-5-yl)oxy)-4-(4-((4′-chloro-5,5-dimethyl-3,4,5,6-tetrahydro-[1,1′-biphenyl]-2-yl)methyl)piperazin-1-yl)-N-((4-((((trans)-4-((3S)-4-((2-(2,6-dioxopiperidin-3-yl)-1-oxoisoindolin-5-yl)methyl)-3-methylpiperazin-1-yl)cyclohexyl)methyl)amino)-3-nitrophenyl)sulfonyl)benzamide]
< 20 | < 10 | < 10 | < 20 | C[C@@H]1CN([C@H]2CC[C@@H](CNc3ccc(S(=O)(=O)NC(=O)c4ccc(N5CCN(CC6=C(c7ccc(Cl)cc7)CC(C)(C)CC6)CC5)cc4Oc4cnc5[nH]ccc5c4)cc3[N+](=O)[O-])CC2)CCN1Cc1ccc2c(c1)CN(C1CCC(=O)NC1=O)C2=O (stereo partly drawn) [BCL-03167, 2-((1H-pyrrolo[2,3-b]pyridin-5-yl)oxy)-4-(4-((4′-chloro-5,5-dimethyl-3,4,5,6-tetrahydro-[1,1′-biphenyl]-2-yl)methyl)piperazin-1-yl)-N-((4-((((cis)-4-((3R)-4-((2-(2,6-dioxopiperidin-3-yl)-1-oxoisoindolin-5-yl)methyl)-3-methylpiperazin-1-yl)cyclohexyl)methyl)amino)-3-nitrophenyl)sulfonyl)benzamide]
< 20 | – | < 10 | < 20 | CC1(C)CCC(CN2CCN(c3ccc(C(=O)NS(=O)(=O)c4ccc(NC[C@H]5CC[C@H](N6CCN(Cc7cc(Br)c8c(c7)C(=O)N(C7CCC(=O)NC7=O)C8)CC6)CC5)c(S(=O)(=O)C(F)(F)F)c4)c(Oc4cnc5[nH]ccc5c4)c3)CC2)=C(c2ccc(Cl)cc2)C1 (stereo partly drawn) [BCL-03182, 2-((1H-pyrrolo[2,3-b]pyridin-5-yl)oxy)-N-((4-((((trans)-4-(4-((7-bromo-2-(2,6-dioxopiperidin-3-yl)-3-oxoisoindolin-5-yl)methyl)piperazin-1-yl)cyclohexyl)methyl)amino)-3-((trifluoromethyl)sulfonyl)phenyl)sulfonyl)-4-(4-((4′-chloro-5,5-dimethyl-3,4,5,6-tetrahydro-[1,1′-biphenyl]-2-yl)methyl)piperazin-1-yl)benzamide]
< 20 | – | < 10 | < 20 | CC1(C)CCC(CN2CCN(c3ccc(C(=O)NS(=O)(=O)c4ccc(NC[C@H]5CC[C@H](N6CCN(Cc7ccc8c(c7)C(=O)N(C7CCC(=O)NC7=O)C8=O)CC6)CC5)c(S(=O)(=O)C(F)(F)F)c4)c(Oc4cnc5[nH]ccc5c4)c3)CC2)=C(c2ccc(Cl)cc2)C1 (stereo partly drawn) [BCL-03185, 2-((1H-pyrrolo[2,3-b]pyridin-5-yl)oxy)-4-(4-((4′-chloro-5,5-dimethyl-3,4,5,6-tetrahydro-[1,1′-biphenyl]-2-yl)methyl)piperazin-1-yl)-N-((4-((((trans)-4-(4-((2-(2,6-dioxopiperidin-3-yl)-1,3-dioxoisoindolin-5-yl)methyl)piperazin-1-yl)cyclohexyl)methyl)amino)-3-((trifluoromethyl)sulfonyl)phenyl)sulfonyl)benzamide]
< 20 | – | < 10 | < 20 | C[C@H]1CN([C@H]2CC[C@@H](CNc3ccc(S(=O)(=O)NC(=O)c4ccc(N5CCN(CC6=C(c7ccc(Cl)cc7)CC(C)(C)CC6)CC5)cc4Oc4cnc5[nH]ccc5c4)cc3[N+](=O)[O-])CC2)CCN1Cc1ccc2c(c1)C(=O)N(C1CCC(=O)NC1=O)C2=O (stereo partly drawn) [BCL-03190, 2-((1H-pyrrolo[2,3-b]pyridin-5-yl)oxy)-4-(4-((4′-chloro-5,5-dimethyl-3,4,5,6-tetrahydro-[1,1′-biphenyl]-2-yl)methyl)piperazin-1-yl)-N-((4-((((cis)-4-((3S)-4-((2-(2,6-dioxopiperidin-3-yl)-1,3-dioxoisoindolin-5-yl)methyl)-3-methylpiperazin-1-yl)cyclohexyl)methyl)amino)-3-nitrophenyl)sulfonyl)benzamide]
81 ± 24.9 | – | 17.3 ± 9.57 | 165 ± 70.7 | Cc1ncsc1-c1ccc([C@H](C)NC(=O)[C@@H]2C[C@@H](O)CN2C(=O)[C@@H](NC(=O)CCCCCC(=O)N2CCN(CC[C@H](CSc3ccccc3)Nc3ccc(S(=O)(=O)NC(=O)c4ccc(N5CCN(CC6=C(c7ccc(Cl)cc7)CCC(C)(C)C6)CC5)cc4)cc3S(=O)(=O)C(F)(F)F)CC2)C(C)(C)C)cc1 [DT2216, reference compound]
